Read-outs that look alike come from different tables or passages of the source.

Data set [1] is described as follows: Stability Test-1: residual rate of 1% aqueous solutions stored at 50° C. (HPLC). The class given is physicochemical. Conditions: water; for remaining at 672 h: after 4 weeks. On the procedure: (§1) For each of the samples of Synthesis Examples 1 to 6, 1% aqueous solutions were adjusted to pH 3, 5, 7, 8, and 9 with a dilute potassium hydroxide aqueous solution, and then placed in 50 mL screw tubes and sealed. […] Furthermore, the odor and coloration of the samples adjusted to pH 7 were evaluated based on the following methods and criteria, and the results are shown in Table 11.
• ⊚: 80% or more • ◯: 50% or more, less than 80% • Δ: 30% or more, less than 50% • x: Less than 30%

Data set [2] is described as follows: Stability Test-1: coloration of 1% aqueous solutions adjusted to pH 7 stored at 50° C. The class given is physicochemical. Conditions: 1% aqueous solution pH 7, 50° C., 10 panelists. How it is done:
as §1
• Evaluation was made by 10 panelists according to the following criteria. • 3: Almost no change compared to immediately after preparation. • 2: Color changes compared to immediately after preparation. • 1: Strongly colored compared to immediately after preparation. • Based on the results of the above evaluation, the following classification was made: […]

A short description of data set [3]: Stability Test-1: odor of 1% aqueous solutions adjusted to pH 7 stored at 50° C. The settings on record: 1% aqueous solution pH 7, 50° C., 10 panelists. The class given is physicochemical. On the procedure:
as §1
(§2) • Evaluation was made by 10 panelists according to the following criteria. • 3: Almost odorless. • 2: There is a slight strange odor. • 1: A strong odor is detected. • Based on the results of the above evaluation, the following classification was made: • ◯: Total score of 10 panelists is 25 or more • Δ: Total score of 10 panelists is 16-24 • x: The total score of 10 panelists is 15 or less

A short description of data set [4]: Stability Test-2: residual rate in cream of pH 7 or 9 stored at 50° C. Format: physicochemical. On the procedure: (§3) For each of the samples of Synthesis Examples 9 to 32, (a) and (b) shown in Table 12 were each heated and mixed. After cooling, (c) shown in Table 12 was added to prepare a cream with a pH of 7 or 9. […] The odor and coloration were also evaluated according to the same method and criteria as in Test Example 1. The results regarding the residual rate are shown in Tables 13 and 14, and the results regarding the odor and coloration are shown in Tables 15 and 16.

Data set [5] is described as follows: Stability Test-2: coloration of cream stored at 50° C. The class given is physicochemical. The settings on record: 10 panelists.
Description: • Evaluation was made by 10 panelists according to the following criteria. • 3: Almost no change compared to immediately after preparation. • 2: Color changes compared to immediately after preparation. • 1: Strongly colored compared to immediately after preparation. • Based on the results of the above evaluation, the following classification was made:
as §3

The subject of data set [6] is Normal human dermal fibroblasts. As to the kind of experiment: Collagen production promoting effect (ELISA of free collagen in supernatant). Format: cell-based. Conditions: 10 mM or less, 48 hours, control group set to 100%, N=3. How it is done:
Normal human dermal fibroblasts were prepared in D-MEM containing 5% (v/v) fetal bovine serum to a cell density of 2.5×10^4 cells/well, and then pre-incubated for 24 hours on a 96-well plate. After removing the medium, samples prepared to a predetermined concentration in D-MEM containing 5% (v/v) fetal bovine serum were added to each well and cultured for 48 hours. After the culture was completed, the amount of free collagen in the supernatant was quantified by ELISA. Measurements were performed in triplicate (N=3).
The amount of collagen produced when the sample was measured at a concentration of 10 mM or less was compared with that of the control group, and the results (% values when the control group was set to 100%) are shown in Table 17 based on the following criteria.

Data set [7] is described as follows: Stability Test-2: odor of cream stored at 50° C. Format: physicochemical. Conditions: 10 panelists.
Description: as §2, §3

The test system of data set [8] is Normal human dermal fibroblasts (NHDF). As to the kind of experiment: Hyaluronic acid production promoting effect (ELISA of hyaluronic acid in supernatant). The class given is cell-based. Conditions: 10 mM or less, 48 hours, control group set to 100%, N=3. How it is done:
Normal human dermal fibroblasts (NHDF) were prepared in D-MEM containing 5% (v/v) fetal bovine serum to a cell density of 2.5×10^4 cells/well, and then pre-incubated on a 96-well plate for 24 hours. After removing the medium, samples prepared in serum-free D-MEM were added to each well and cultured for 48 hours. After the culture was completed, the amount of hyaluronic acid in the supernatant was quantified by ELISA. Measurements were performed in triplicate (N=3).
The amount of hyaluronic acid produced when the sample was measured at a concentration of 10 mM or less was compared with that of the control group, and the results (% values when the control group is set to 100%) are shown in Tables 18 to 20 based on the following criteria.

Where [9] appears, read: pH 3, 50° C., after 2 weeks, 1% aqueous solution, read-out: Residual Rate.
Setting [10] is: pH 3, 50° C., 1% aqueous solution.
Setting [11] is: pH 5, 50° C., after 2 weeks, 1% aqueous solution, read-out: Residual Rate.
[12] abbreviates: pH 5, 50° C., 1% aqueous solution.
[13] abbreviates: pH 7, 50° C., after 2 weeks, 1% aqueous solution, read-out: Residual Rate.
Setting [14] is: pH 7, 50° C., 1% aqueous solution.
Where [15] appears, read: pH 8, 50° C., after 2 weeks, 1% aqueous solution, read-out: Residual Rate.
Setting [16] is: pH 8, 50° C., 1% aqueous solution.
Setting [17] is: pH 9, 50° C., after 2 weeks, 1% aqueous solution, read-out: Residual Rate.
Setting [18] is: pH 9, 50° C., 1% aqueous solution.
Setting [19] is: cream pH 7, 50° C., after 2 weeks, 20160 min.
[20] abbreviates: cream pH 7, 50° C., after 4 weeks, 40320 min.
[21] abbreviates: cream pH 9, 50° C., after 2 weeks, 20160 min.
[22] abbreviates: cream pH 9, 50° C., after 4 weeks, 40320 min.

`O=C1OC(C(O)CO)C2=C1OC(CO)CO2` (stereo not shown) [Synthesis Example 5, 2,3-O-(1-hydroxymethyl-1,2-ethanediyl) ascorbic acid]: the remaining at 336 h in data set [1] (setting [9]) is at least 80%; in data set [1] (setting [11]), at least 80%; in data set [1] (setting [13]) it was 50 to 80%; in data set [1] (setting [15]) it was 50 to 80%; in data set [1] (setting [17]) it was 50 to 80%. The remaining at 672 h in data set [1] (setting [10]) was at least 80%; in data set [1] (setting [12]) it was at least 80%; in data set [1] (setting [14]), 30 to 50%; in data set [1] (setting [16]), 30 to 50%; in data set [1] (setting [18]) it was 30 to 50%. Also, the Coloration result in data set [2] (after 2 weeks) and in data set [2] (after 4 weeks) was “∘ (Total score of 10 panelists is 25 or more)” in each case. For the same compound, the Odor result in data set [3] (after 2 weeks) and in data set [3] (after 4 weeks) was “∘ (Total score of 10 panelists is 25 or more)” each time.

Regarding `CC(C)CCCCCCCCCCCCCCC(=O)OCC(OC(=O)CCCCCCCCCCCCCCC(C)C)C1OC(=O)C2=C1OCCCO2` (stereo not shown) [Synthesis Example 29, 5,6-O-diisostearoyl-2,3-O-(1,3-propanediyl) ascorbic acid], the “Residual Rate” value in data set [4] (setting [19]), in data set [4] (setting [20]), in data set [4] (setting [21]) and in data set [4] (setting [22]) was “⊚ (95% or more)” each time. The Coloration result in data set [5] (after 2 weeks) and in data set [5] (after 4 weeks) was “◯ (Total score of 10 panelists is 25 or more)” each time. Moreover, in data set [6], the Collagen production-promoting effect entry is “++ (140%<)”. In addition, the Odor result in data set [7] (after 2 weeks) is “◯ (Total score of 10 panelists is 25 or more)”; in data set [7] (after 4 weeks), “Δ (Total score of 10 panelists is 16-24)”.

`O=C1OC(C(O)CO)C2=C1OCCCCO2` (stereo not shown) [Synthesis Example 3, 2,3-O-(1,4-butanediyl) ascorbic acid]: the remaining at 336 h is at least 80% in data set [1] (setting [9]); at least 80% in data set [1] (setting [11]); at least 80% in data set [1] (setting [13]); at least 80% in data set [1] (setting [15]); 50 to 80% in data set [1] (setting [17]). Further, the remaining at 672 h was at least 80% in data set [1] (setting [10]); at least 80% in data set [1] (setting [12]); at least 80% in data set [1] (setting [14]); 50 to 80% in data set [1] (setting [16]); 30 to 50% in data set [1] (setting [18]). Further, the Coloration entry in data set [2] (after 2 weeks) and in data set [2] (after 4 weeks) was “∘ (Total score of 10 panelists is 25 or more)” in each case. Besides, the Odor result in data set [3] (after 2 weeks) and in data set [3] (after 4 weeks) was “∘ (Total score of 10 panelists is 25 or more)” in each case.

On to `O=C1OC(C(O)CO)C2=C1OCCO2` (stereo not shown) [Synthesis Example 1, 2,3-O-(1,2-ethanediyl) ascorbic acid], for which the remaining at 336 h in data set [1] (setting [9]) is at least 80%; in data set [1] (setting [11]) it was at least 80%; in data set [1] (setting [13]), 50 to 80%; in data set [1] (setting [15]), 30 to 50%; in data set [1] (setting [17]), under 30%. The remaining at 672 h in data set [1] (setting [10]) is at least 80%; in data set [1] (setting [12]) it was at least 80%; in data set [1] (setting [14]) it was 30 to 50%; in data set [1] (setting [16]) it was under 30%; in data set [1] (setting [18]), under 30%. For the same compound, the figures for the Coloration result in data set [2] (after 2 weeks) and in data set [2] (after 4 weeks) were “∘ (Total score of 10 panelists is 25 or more)” and “Δ (Total score of 10 panelists is 16-24)”, respectively. For the same compound, the Odor entry in data set [3] (after 2 weeks) and in data set [3] (after 4 weeks) was “∘ (Total score of 10 panelists is 25 or more)” each time.

Turning to `O=C1O[C@H]([C@@H](O)CO)C(O)=C1O` [Ascorbic acid], the remaining at 336 h in data set [1] (setting [9]) is 50 to 80%; in data set [1] (setting [11]), 50 to 80%; in data set [1] (setting [13]), under 30%; in data set [1] (pH 7 to 9, 50° C., after two weeks, read-out: residual rates), under 30%; in data set [1] (setting [15]) it was under 30%; in data set [1] (setting [17]), under 30%. In addition, the remaining at 672 h in data set [1] (setting [10]) was 30 to 50%; in data set [1] (setting [12]) it was under 30%; in data set [1] (setting [14]), under 30%; in data set [1] (setting [16]), under 30%; in data set [1] (setting [18]), under 30%. Moreover, the results for the Coloration entry in data set [2] (after 2 weeks) and in data set [2] (after 4 weeks) were “Δ (Total score of 10 panelists is 16-24)” and “x (The total score of 10 panelists is 15 or less)”, respectively. The “Hyaluronic acid production-promoting effect” value in data set [8] is reported as “± (<100%)”. The results for the Odor result in data set [3] (after 2 weeks) and in data set [3] (after 4 weeks) were “Δ (Total score of 10 panelists is 16-24)” and “x (The total score of 10 panelists is 15 or less)”, respectively.

`O=C1OC(C(O)CO)C2=C1OCC(O)CO2` (stereo not shown) [Synthesis Example 4, 2,3-O-(2-hydroxypropane-1,3-diyl) ascorbic acid]: the remaining at 336 h in data set [1] (setting [9]) was at least 80%; in data set [1] (setting [11]), at least 80%; in data set [1] (setting [13]) it was 50 to 80%; in data set [1] (setting [15]), 50 to 80%; in data set [1] (setting [17]), 50 to 80%. The remaining at 672 h in data set [1] (setting [10]) was at least 80%; in data set [1] (setting [12]), at least 80%; in data set [1] (setting [14]), 50 to 80%; in data set [1] (setting [16]), 30 to 50%; in data set [1] (setting [18]), 30 to 50%. In addition, the Coloration entry in data set [2] (after 2 weeks) and in data set [2] (after 4 weeks) was “∘ (Total score of 10 panelists is 25 or more)” each time. The “Hyaluronic acid production-promoting effect” value in data set [8] is “++ (120%<)”. For the same compound, the Odor result in data set [3] (after 2 weeks) and in data set [3] (after 4 weeks) was “∘ (Total score of 10 panelists is 25 or more)” throughout.

On to `CC(C)CCCCCCCCCCCCCCC(=O)OCC(O)C1OC(=O)C2=C1OCCCO2` (stereo not shown) [Synthesis Example 28, 6-O-isostearoyl-2,3-O-(1,3-propanediyl) ascorbic acid], for which the “Residual Rate” value in data set [4] (setting [19]), in data set [4] (setting [20]), in data set [4] (setting [21]) and in data set [4] (setting [22]) was “⊚ (95% or more)” in each case. Also, the Coloration entry in data set [5] (after 2 weeks) and in data set [5] (after 4 weeks) was “◯ (Total score of 10 panelists is 25 or more)” in each case. Further, the “Hyaluronic acid production-promoting effect” value in data set [8] is given as “++ (120%<)”. For the same compound, the Odor result was “◯ (Total score of 10 panelists is 25 or more)” in data set [7] (after 2 weeks) and “Δ (Total score of 10 panelists is 16-24)” in data set [7] (after 4 weeks).

These data come from patent US20260294769A1, “ASCORBIC ACID DERIVATIVES AND COSMETIC THEREOF” (SEIWA KASEI COMPANY, LIMITED, priority 2023, published 2026).
